Experimental findings from patent US9931335B2, “Desethylhydroxychloroquine for the treatment of diseases associated with inflammation” (The Board of Trustees of the Leland Stanford Junior …, priority 2013, dated 2018) are described below.

Each structure is given as a SMILES string. Entries after “also recorded” stand apart in the source; their conditions may differ.

For assay [1], the system named is TNF production by human peripheral blood mononuclear cells (PBMCs). The assay is described as follows: LPS-stimulated TNF production by human PBMCs (ELISA). The format is cell-based. To be noted: LPS 10 μg/ml, 10, 25 and 50 μM compound, 14 hours; vs LPS alone. As for the experimental part: DHCQ reduced the production of the pro-inflammatory cytokine tumor necrosis factor (TNF) by human peripheral blood mononuclear cells (PBMCs) in response to pro-inflammatory lipopolysaccharide (LPS) stimulation (FIG. 10). Human PBMCs were isolated using Ficoll, 200,000 PBMCs were added to each well of a 96-well plate, and stimulated with LPS 10 μg/ml in the presence of a range of concentrations from 0 to 50 μM DHCQ, or 0 to 50 μM HCQ, for 14 hours, following which culture supernatants were collected and TNF measured by ELISA. Assays were run in triplicate.
Isolation of human PBMCs and monocytes. The Ficoll-Paque™ Plus (Cat; 17-1440-03GE Healthcare) was used to isolate human peripheral blood mononuclear cells (PBMCs) from blood collected from healthy donors. For cell culture, the isolated PBMCs were resuspended in culture medium (RPM11640) containing 10% FCS and antibiotics (penicillin 100 IU/mL and streptomycin 100 μg/mL). Monocyte Isolation Kit II (Cat; 130-091-153, Miltenyi Biotec) was used to isolate monocytes from the suspension of human PBMCs.
Stimulation assays. […]
Readout. […] For each assay, a parallel well treated identically was prepared and level of LDH measured to assure no evidence of cell death was induced by drug treatment.
On the technique in general: An ELISA detects its analyte on a solid surface through an enzyme-linked reagent.

The test system of assay [2] is diet-induced obesity in C57BL/6 mice. The experiment in a line: Mouse diet-induced obesity: type II diabetes, hyperlipidemia and metabolic syndrome. To be noted: 10 mg/kg/day, 6 weeks; for total cholesterol / triglycerides / blood glucose: vs vehicle; for blood glucose: two-tailed T test. The format is in vivo. Here is the method: To evaluate treatment with DHCQ and HCQ on a mouse model of diet-induced type II diabetes, hyperlipidemia and metabolic syndrome, C57BL/6 mice (8 per group) were fed a high-fat “western-style” diet (60% caloric content from fat; Taconic). In an analogous fashion to that in Example 6, two weeks following initiation of the high-fat diet groups of mice were initiated on treatment with vehicle control, HCQ (10 mg/kg/day) or the HCQ metabolites DHCQ (10 mg/kg/day), DCQ (10 mg/kg/day), or BDCQ (10 mg/kg/day). After 6 weeks of treatment, blood was collected for analysis of glucose, triglyceride, and cholesterol levels.

Assay [3] deals with DMM-induced OA in C57BL6 (B6) mice. The assay is described as follows: Destabilization of the medial meniscus (DMM) mouse model of osteoarthritis. The format is in vivo. The conditions noted are these: 3 months, vs vehicle; for Cartilage Degeneration Score (OA score): aminoquinolines 100 mg/kg/day, atorvastatin 40 mg/kg/day, oral gavage from 1 week after DMM, two-tailed T test. Here is the method: One week following surgical induction, treatment was initiated with vehicle control, hydroxychloroquine (HCQ), or desethylhydroxychloroquine (DHCQ) dosed at 100 mg/kg/day by oral gavage (once per day). After 3 months, mice were sacrificed, joints harvested, joint sections cut, and tissue sections stained with safranin-O. An examiner blinded to treatment used microscopy to score the severity of OA. The “Cartilage Degeneration Score” (also known as the “OA score”, “Severity Score” and “Histology Score”) was determined by a blinded examiner, and the two-tailed T test used to determine if there were statistical differences in the Cartilage Degeneration Scores between groups.
The histologic sections generated at the termination of the mouse OA experiment presented above and in FIG. 5 were subject to blinded scoring for the “Osteophyte Score” (measure of the amount of osteophyte or ectopic bone formation) and “Synovitis Score” (measure of the amount of synovial and joint inflammation). The scores between groups were compared by two-tailed T test.
Experiments were performed under protocols approved by the Stanford University Committee of Animal Research and in accordance with NIH guidelines. Murine OA was generated by surgically by destabilization of the DMM (Glasson, S., S., et al., Osteoarthritis Cartilage, 15: 1061-1069 (2007)).
Mice were euthanized 3 months after surgery. Their stifle joints were decalcified in EDTA solution, fixed in 4% paraformaldehyde, and embedded in paraffin. Serial 4 micron sections were cut and stained with toluidine blue. Scoring of arthritis in these histology sections was done according to a modified version of previously described composite scoring systems (Kamekura, S., et al. Osteoarthritis Cartilage 13: 632-641 (2005); Bendele, A. M., J Musculoskelet Neuronal Interact., 1: 363-376 (2001)). The “OA Score” was calculated as follows: cartilage degeneration (0-4) was multiplied by the width (1=1/3, 2=2/3, and 3=3/3 of surface area) of each third of the femoral-medial and tibial-medial condyles, and the scores for the 6 regions were summed. To evaluate osteophyte (ectopic bone) formation, we scored toluidine-blue-stained sections according to a previously described scoring system (Kamekura, S., et al. Osteoarthritis development in novel experimental mouse models induced by knee joint instability. Osteoarthritis Cartilage 13, 632-641 (2005)): 0, none; 1, formation of cartilage-like tissues; 2, increase of cartilaginous matrix; 3, endochondral ossification. To evaluate synovitis, we scored H&E-stained sections according to a previously described scoring system (Blom, A. B., et al. Synovial lining macrophages mediate osteophyte formation during experimental osteoarthritis. Osteoarthritis Cartilage 12, 627-635 (2004)): 0, no changes compared to normal joints; 1, thickening of the synovial lining and some influx of inflammatory cells; 2, thickening of the synovial lining and intermediate influx of inflammatory cells; and 3, profound thickening of the synovial lining (more than four cell layers) and maximal observed influx of inflammatory cells. Scores for osteophyte formation and synovitis were recorded for the femoral-medial and the tibial-medial condyles on the operated side of the joint, and the scores for the two regions were summed and statistical comparisons performed using a two-tailed T test.
Treatment was started 1 week after surgical induction of destabilization of the medial meniscus (DMM), a time point at which mice were at increased risk for the development of OA.

In the case of `CCN(CCO)CCCC(C)Nc1ccnc2cc(Cl)ccc12` (centres unmarked) [HCQ, hydroxychloroquine], the TNF production result in assay [1] is reported as “reduced PMBC TNF production”. Moreover, in assay [2], the total cholesterol result is recorded as “did not result in statistical reductions”, the triglycerides entry was “did not result in statistical reductions” and the blood glucose result is listed as “did not result in statistical reductions in blood glucose”. In addition, the “Cartilage Degeneration Score (OA score)” value in assay [3] is “only resulted in trends towards improvement; also recorded: did not result in a statistically significant reduction in the severity of OA”. Also, the “Cartilage Degeneration Score (OA score)” value in assay [3] (listed as Hydroxychloroquine) was “did not result in a statistically signification prevention or reduction in OA severity”.

As for `CC(CCCNCCO)Nc1ccnc2cc(Cl)ccc12` (centres unmarked) [DHCQ, desethylhydroxychloroquine], the TNF production entry in assay [1] is “reduced PMBC TNF production”. For the same compound, in assay [2], the “treatment of diet-induced metabolic disease compared to HCQ, DCQ and BDCQ” value is “statistically more effectively than HCQ, DCQ and BDCQ”; the total cholesterol result is given as “statistical reductions in total cholesterol”; the triglycerides result was “statistical reductions”; the blood glucose entry is reported as “statistical reduction in blood glucose levels”. Moreover, in assay [3] (100 mg/kg/day oral gavage), the “Osteophyte Score” value is “statistically prevented and reduced; also recorded: statistically significant protection against the development of synovitis and osteophytes”. Moreover, the “Cartilage Degeneration Score (OA score)” value in assay [3] is “statistically prevented and reduced the severity of OA; also recorded: statistically prevented and reduced the severity of cartilage degeneration”. Besides, the “Synovitis Score” value in assay [3] (oral gavage) was “statistically prevented and reduced; also recorded: statistically significant protection against the development of synovitis and osteophytes”.
